Measurements: paper PMC6471062, “Suppression of the Ubiquitin Pathway by Small Molecule Binding to Ubiquitin Enhances Doxorubicin Sensitivity of the Cancer Cells” (Molecules, 2019)

How the values were obtained:
USP5 (Homo sapiens) = experiment: Deubiquitination assay, cleavage of GST-Ubiquitin-HA by USP5 (SDS-PAGE band intensity); format: biochemical
Procedure: (§1) For in vitro ubiquitination assays, 500 µM of ubiquitin was used for each ubiquitination reaction as described previously, in the absence or presence of 50–500 µM of CR. […] The generation of GST-ubiquitin from GST-Ubiquitin-HA as the mobility shifts were analyzed on 12.5% SDS-PAGE visualized by Coomassie blue staining. Band intensities were quantified by ImageJ [55] and used to generate the IC50 curves (log inhibitor vs. normalized response with variable slope) by GraphPad Prism version 6.0 for Windows (GraphPad Software, San Diego, CA, USA, www.graphpad.com).

E2-25K = experiment: In vitro K48 polyubiquitination reaction with E2-25K; format: biochemical; settings: purified E2-25K, increasing CR (50–500 µM), 500 µM ubiquitin, 37 °C
Procedure: Figure 5 CR inhibits K48- and K63- polyubiquitination in vitro. (a) Interacting surface of ubiquitin when complex with E2-25K and Ubc13 compared with the surface used for CR binding. (b,c) CR inhibits K48- (b) and K63-ubiquitinations (c). First, mono ubiquitin was mixed with UBA1, E2-25K or complex Mms2/Ubc13, and 0–500 µM CR in the presence or absence of ATP regeneration system. Then the mixture was incubated at 37 °C for […]. The reaction was stopped by adding 5X SDS loading buffer and the results were analyzed with 15% SDS-PAGE.
as §1, with “CR. The reactions were incubated at 37 °C for 4 h and 16 h for K63- and K48 polyubiquitination respectively. The reaction was terminated by adding 5X SDS sampling buffer and results were subjected to 15% SDS-PAGE followed by Coomassie Blue staining for analyses.” for “CR.”

H1299 cells [1] = experiment: Total ubiquitination state of non-Dox-treated cells (immunoblot, immunofluorescence); format: cell-based; settings: H1299, 1.0 and 10 μM CR, 12 h
Procedure: Cells were seeded in the SPL 4 wells cell culture chamber slide 24 h before experiment. Cells were treated with an indicated compound for an indicated time. The cells were fixed with 4% formaldehyde for 15 min followed by three times of PBS washing. Cells were permeabilized by incubation with PBS containing 0.5% Triton-X100 and 5% FBS for 30 min, and then blocked with blocking buffer (PBS, 5% FBS, 0.3% Triton X-100) for 1.5 h. Subsequently, cells were incubated with primary antibody at 1/200 dilution in blocking buffer overnight and then washed with blocking buffer five times (5 min each) before incubation with fluorescence-conjugated secondary antibody at 1/200 dilution in blocking buffer for 1 h. Cells were then washed with blocking buffer five times (5 min each) before incubation with DAPI for 10 min and three times washing with PBS. Slides were covered with the coverslip in the presence of mounting solution (cat # 475904, MOWIOL) and subjected to confocal imaging. Images acquired in confocal imaging were subjected to fluorescence intensity analysis using ImageJ [55]. Fluorescence signal representing a particular ubiquitin chain level was analyzed and normalized with the intensity of DAPI. Data were analyzed using GraphPad Prism version 6.0 for Windows with two tail t-test for statistical data analysis. page 6: Figure S6. Effect of CR on the ubiquitination state of none-treated cells. […]

H1299 cells [2] = experiment: Dox-induced K48- and K63-polyubiquitination in cells (immunofluorescence staining, Western blot); format: cell-based; settings: H1299, 5 or 10 μM CR 12 h pretreatment, then 5 μM Dox 12 h
Procedure: Figure 6 CR inhibits Dox-induced ubiquitination in the cells. (a) Immunofluorescence staining of H1299 cells treated with or without 5 (+) and 10 (++) μM CR for 12 h followed by addition of Dox to a final concentration of 5 μM, with incubation for 12 h. The cells were subjected to immunofluorescence staining using the antibodies against K48 (αK48) and K63 polyubiquitins (αK63). (b) K48 or K63 polyubiquitin level in Figure 6a was quantified by fluorescence signal. At least seven random regions acquired in confocal images were sampled and normalized against DAPI intensity for quantification. (c) Immunoblots of samples in Figure 6a using the indicated antibodies. […] Statistical significance was calculated by the Student’s t-test (* p < 0.05, ** p < 0.01, *** p < 0.001).
Cells were seeded in the SPL 4 wells cell culture chamber slide 24 h before experiment. […] Subsequently, cells were incubated with primary antibody at 1/200 dilution in blocking buffer overnight and then washed with blocking buffer five times (5 min each) before incubation with fluorescence-conjugated secondary antibody at 1/200 dilution in blocking buffer for 1 h. […] Images acquired in confocal imaging were subjected to fluorescence intensity analysis using ImageJ [55]. Fluorescence signal representing a particular ubiquitin chain level was analyzed and normalized with the intensity of DAPI. […]

Sequence of USP5 (Homo sapiens) (P45974 2-858, other chains not shown): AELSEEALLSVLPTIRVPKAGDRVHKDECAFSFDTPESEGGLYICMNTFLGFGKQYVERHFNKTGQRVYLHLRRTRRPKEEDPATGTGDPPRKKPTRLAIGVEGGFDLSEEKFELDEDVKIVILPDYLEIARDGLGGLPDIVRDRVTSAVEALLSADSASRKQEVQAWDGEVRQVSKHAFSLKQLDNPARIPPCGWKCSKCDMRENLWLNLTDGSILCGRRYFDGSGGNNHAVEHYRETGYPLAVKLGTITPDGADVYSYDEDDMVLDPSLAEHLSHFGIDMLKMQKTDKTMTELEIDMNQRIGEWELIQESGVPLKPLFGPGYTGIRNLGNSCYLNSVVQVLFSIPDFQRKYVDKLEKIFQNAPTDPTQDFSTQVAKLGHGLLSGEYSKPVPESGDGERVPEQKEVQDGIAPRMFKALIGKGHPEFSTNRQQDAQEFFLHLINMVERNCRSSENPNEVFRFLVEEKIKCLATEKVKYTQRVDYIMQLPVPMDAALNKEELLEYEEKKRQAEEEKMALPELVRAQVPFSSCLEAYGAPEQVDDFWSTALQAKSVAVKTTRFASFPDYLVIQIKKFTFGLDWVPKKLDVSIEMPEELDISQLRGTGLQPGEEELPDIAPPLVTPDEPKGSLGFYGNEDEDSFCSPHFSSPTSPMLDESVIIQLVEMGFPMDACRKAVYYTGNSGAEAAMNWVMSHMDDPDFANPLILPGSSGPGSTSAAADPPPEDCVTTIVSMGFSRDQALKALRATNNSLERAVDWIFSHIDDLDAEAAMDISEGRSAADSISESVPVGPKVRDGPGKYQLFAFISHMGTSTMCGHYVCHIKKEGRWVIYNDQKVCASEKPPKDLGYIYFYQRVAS

`Nc1c(/N=N/c2ccc(-c3ccc(/N=N/c4cc(S(=O)(=O)O)c5ccccc5c4N)cc3)cc2)cc(S(=O)(=O)O)c2ccccc12` [CR, Congo red] was tested, and the IC50 (USP5 (Homo sapiens)) was 13.4 ± 2.64 µM, the “Inhibition of K48 polyubiquitination” value (E2-25K) was “effectively inhibited by CR in a dose-dependent manner” and the “Effect on total ubiquitination of normal (non-Dox-treated) cells” value (H1299 cells [1]) was “slight accumulation of the polyubiquitin chains”. For the same molecule, the “Effect on Dox-triggered K48 and K63 ubiquitination” value (H1299 cells [2]) was “suppressed Dox-triggered ubiquitination in both K48 and K63”.
